# Legend:
# Hepatitis C virus = assay: Antiviral activity against HCV pseudoparticle infected in Huh-7 cells assessed as inhibition of viral entry pretreated for 30 mins with cells followed by viral infection for 4 hrs and subsequent compound wash out and measured after 72 hrs by Bright-Glo reagent based luciferase assay; format: functional, organism-based, Hepacivirus hominis
# HEK293T = assay: Inhibition of Ebola virus pseudoparticle GP HR2 domain-mediated viral entry into human 293T cells at 1 uM incubated for 72 hrs by Bright-Glo reagent based assay relative to control; format: cell-based; settings: Ebolavirus
# Albumin = Albumin (Homo sapiens, UniProt P02768); assay: Protein binding in human serum albumin; format: ADME; settings: read-out: PB
# Chain of Albumin (P02768 whole entry): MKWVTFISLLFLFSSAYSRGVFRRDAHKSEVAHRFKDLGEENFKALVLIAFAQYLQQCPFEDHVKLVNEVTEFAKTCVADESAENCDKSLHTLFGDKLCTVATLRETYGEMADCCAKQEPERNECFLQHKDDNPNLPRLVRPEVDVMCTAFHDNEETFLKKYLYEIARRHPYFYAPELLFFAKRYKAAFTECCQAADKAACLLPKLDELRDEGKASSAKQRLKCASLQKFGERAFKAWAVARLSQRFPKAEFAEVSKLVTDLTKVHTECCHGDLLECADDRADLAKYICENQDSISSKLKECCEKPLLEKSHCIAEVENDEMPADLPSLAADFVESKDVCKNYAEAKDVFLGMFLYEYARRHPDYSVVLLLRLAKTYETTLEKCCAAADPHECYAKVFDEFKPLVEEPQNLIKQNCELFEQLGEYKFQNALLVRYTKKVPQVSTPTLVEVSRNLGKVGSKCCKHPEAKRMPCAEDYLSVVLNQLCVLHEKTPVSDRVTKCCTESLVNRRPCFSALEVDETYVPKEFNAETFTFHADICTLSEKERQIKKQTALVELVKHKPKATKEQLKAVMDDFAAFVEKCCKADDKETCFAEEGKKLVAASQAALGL
# [1] = Aqueous solubility of compound; format: physicochemical
# [2] = test system: Human immunodeficiency virus 1; assay: Anti-HIV-1 activity against HIV1 IIIB infected in human H9 cells assessed as in p24 antigen production by sandwich ELISA; format: functional, organism-based; settings: Human immunodeficiency virus 1, IIIB
# [3] = test system: Human immunodeficiency virus 1; assay: Anti-HIV-1 activity against HIV1 NL4-3 infected in human HeLa expressing CD4/CCR5/beta-gal assessed as inhibition of syncytium formation incubated for 2 days by MAGI assay; format: functional, organism-based; settings: Human immunodeficiency virus 1, NL4-3, HeLa, 48 h
# [4] = test system: Human immunodeficiency virus 1; assay: Anti-HIV-1 activity against HIV1 IIIB/LAI infected in human CEM 4 cells assessed as reduction in virus-indued cytopathic effect treated for 1 hr with cells followed by viral infection and measured after 5 days; format: functional, organism-based; settings: Human immunodeficiency virus 1, IIIB/LAI
# [5] = Inhibition of Zaire Ebola virus pseudoparticle GP HR2 domain-mediated virus-host fusion in human 293T cells incubated for 72 hrs by Bright-Glo reagent based assay; format: cell-based, Zaire ebolavirus; settings: hek293t
# [6] = Antiviral activity against Ebola virus Makona infected in human HeLa cells pretreated for 2 hrs followed by viral infection for 48 hrs by Alexa Fluor 488 staining based assay; format: functional, cell-based; settings: Zaire ebolavirus
# [7] = Antiviral activity against Ebola virus Makona infected in human foreskin fibroblast pretreated for 2 hrs followed by viral infection for 48 hrs by Alexa Fluor 488 staining based assay; format: functional, cell-based; settings: Zaire ebolavirus
# [8] = Binding affinity to EBOV envelope glycoprotein HR2 domain by surface plasmon resonance; parameters: species or system Ebolavirus
# [9] = Binding affinity to EBOV envelope glycoprotein HR2 domain assessed as reduction in HR1-HR2 interaction by measuring Kd for HR1-HR2 affinity by surface plasmon resonance (reference value: 1 uM); parameters: species or system Ebolavirus
# [10] = Inhibition of Zaire Ebola virus pseudoparticle GP HR2 domain-mediated virus-host fusion in human A549 cells incubated for 72 hrs by Bright-Glo reagent based assay; format: cell-based, Zaire ebolavirus
# Human coronavirus 229E = assay: Antiviral activity against HCoV-229E infected in human MRC5 cells incubated for 2 hrs by XTT method; format: functional, organism-based; settings: MRC5, 2 h
# [11] = Selectivity index, ratio of CC50 for human MRC5 cells to EC50 for HCoV-229E infected in human MRC5 cells; format: toxicity, cell-based; settings: MRC5 cells (CC50) and HCoV-229E-infected MRC5 cells (EC50)
# [12] = test system: Human immunodeficiency virus 1; assay: Antiviral activity against HIV-1 NL4-3; format: functional, organism-based; settings: Human immunodeficiency virus 1, NL4-3
# [13] = test system: Human immunodeficiency virus 1; assay: Antiviral activity against HIV-1 harboring V307A mutant; format: functional, organism-based
smiles,measurement,setting,value
CC1(C)CC[C@]2(C(=O)O)CC[C@]3(C)C(=CC[C@@H]4[C@@]5(C)CC[C@H](O)C(C)(C)[C@@H]5CC[C@]43C)[C@@H]2C1 [OLEANOLIC_ACID],IC50,Hepatitis C virus,10000 nM
same,inhibition,HEK293T,1%
CC(=O)OC[C@H]1O[C@@H](NC(=O)[C@]23CCC(C)(C)C[C@H]2C2=CC[C@@H]4[C@@]5(C)CC[C@H](O)C(C)(C)[C@@H]5CC[C@@]4(C)[C@]2(C)C[C@H]3O)[C@H](OC(C)=O)[C@@H](OC(C)=O)[C@H]1OC(C)=O,inhibition,HEK293T,22%
C=C(C)[C@@H]1CC[C@]2(C(=O)O)CC[C@]3(C)[C@H](CC[C@@H]4[C@@]5(C)CC[C@H](OC(=O)CC(C)(C)C(=O)O)C(C)(C)[C@@H]5CC[C@]43C)[C@@H]12 [BEVIRIMAT],fraction unbound,Albumin,< 0.01
same,solubility,[1],< 1 µg/mL
C=C(C)[C@@H]1CC[C@]2(C(=O)NCCCCCCCC(=O)N[C@@H](CC(C)C)[C@@H](O)CC(=O)O)CC[C@]3(C)[C@H](CC[C@@H]4[C@@]5(C)CC[C@H](O)C(C)(C)[C@@H]5CC[C@]43C)[C@@H]12,IC50,[2],30 nM
C=C(C)[C@@H]1CC[C@]2(C(=O)NCCCCCCCC(=O)N[C@@H](CC(C)C)[C@H](O)CC(=O)O)CC[C@]3(C)[C@H](CC[C@@H]4[C@@]5(C)CC[C@H](O)C(C)(C)[C@@H]5CC[C@]43C)[C@@H]12,EC50,[3],400 nM
CC1(C)CC[C@]2(C(=O)N[C@@H]3O[C@H](CO)[C@H](O)[C@H](O)[C@H]3O)CC[C@]3(C)C(=CC[C@@H]4[C@@]5(C)CCC(=O)C(C)(C)[C@@H]5CC[C@]43C)[C@@H]2C1,inhibition,HEK293T,7%
CC(=O)OC[C@H]1O[C@@H](NC(=O)[C@]23CCC(C)(C)C[C@H]2C2=CC[C@@H]4[C@@]5(C)CC[C@H](O)C(C)(C)[C@@H]5CC[C@@]4(C)[C@]2(C)CC3)[C@@H](OC(C)=O)[C@@H](OC(C)=O)[C@@H]1OC(C)=O,inhibition,HEK293T,-4%
CC(=O)OC[C@H]1O[C@@H](NC(=O)[C@]23CCC(C)(C)C[C@H]2C2=CC[C@@H]4[C@@]5(C)CC[C@H](O)C(C)(C)[C@@H]5CC[C@@]4(C)[C@]2(C)CC3)[C@H](OC(C)=O)[C@@H](OC(C)=O)[C@H]1OC(C)=O,inhibition,HEK293T,32%
CC1(C)CC[C@]2(C(=O)N[C@@H]3O[C@H](CO)[C@H](O)[C@H](O)[C@H]3O)C(=O)C[C@]3(C)C(=CC[C@@H]4[C@@]5(C)CCC(=O)C(C)(C)[C@@H]5CC[C@]43C)[C@@H]2C1,inhibition,HEK293T,6%
C=C(C)[C@@H]1CC[C@]2(C(=O)NCCCCCCCCCCC(=O)O)CC[C@]3(C)[C@H](CC[C@@H]4[C@@]5(C)CC[C@H](O)C(C)(C)[C@@H]5CC[C@]43C)[C@@H]12,IC50,[4],230 nM
CC1(C)CC[C@]2(C(=O)N[C@@H]3O[C@H](CO)[C@H](O)[C@H](O)[C@H]3O)CC[C@]3(C)C(=CC[C@@H]4[C@@]5(C)CC[C@H](O)C(C)(C)[C@@H]5CC[C@]43C)[C@@H]2C1,inhibition,HEK293T,16%
CC(=O)OC[C@H]1O[C@@H](NC(=O)[C@]23CCC(C)(C)C[C@H]2C2=CC[C@@H]4[C@@]5(C)CC[C@H](O)C(C)(C)[C@@H]5CC[C@@]4(C)[C@]2(C)C[C@H]3O)[C@@H](OC(C)=O)[C@@H](OC(C)=O)[C@@H]1OC(C)=O,inhibition,HEK293T,17%
CC1(C)CC[C@]2(C(=O)N[C@@H]3O[C@H](CO)[C@@H](O)[C@H](O)[C@@H]3O)[C@H](O)C[C@]3(C)C(=CC[C@@H]4[C@@]5(C)CC[C@H](O)C(C)(C)[C@@H]5CC[C@]43C)[C@@H]2C1,inhibition,HEK293T,3%
CC1(C)CC[C@]2(C(=O)O)[C@H](O)C[C@]3(C)C(=CC[C@@H]4[C@@]5(C)CC[C@H](O)C(C)(C)[C@@H]5CC[C@]43C)[C@@H]2C1,inhibition,HEK293T,2%
CC(=O)OC[C@H]1O[C@@H](NC(=O)[C@]23CCC(C)(C)C[C@H]2C2=CC[C@@H]4[C@@]5(C)CCC(=O)C(C)(C)[C@@H]5CC[C@@]4(C)[C@]2(C)CC3=O)[C@H](OC(C)=O)[C@@H](OC(C)=O)[C@H]1OC(C)=O,IC50,[5],59.2 nM
same,EC50,[6],460 nM
same,EC50,[7],990 nM
same,inhibition,HEK293T,99%
same,Kd,[8],5400 nM
same,Kd,[9],23400 nM
same,IC50,[10],59.2 nM
C#CCN(CCCC1(C)N=N1)C(=O)[C@]12CCC(C)(C)C[C@H]1C1=CC[C@@H]3[C@@]4(C)CCC(=O)C(C)(C)[C@@H]4CC[C@@]3(C)[C@]1(C)CC2=O,Kd,[8],16800 nM
CC1(C)CC[C@]2(C(=O)N[C@@H]3O[C@H](CO)[C@H](O)[C@H](O)[C@H]3O)[C@H](O)C[C@]3(C)C(=CC[C@@H]4[C@@]5(C)CC[C@H](O)C(C)(C)[C@@H]5CC[C@]43C)[C@@H]2C1,inhibition,HEK293T,16%
CC1(C)CCC2C(=O)C[C@]3(C)C(=CC[C@@H]4[C@@]5(C)CCC(=O)C(C)(C)[C@@H]5CC[C@]43C)[C@@H]2C1 (stereo partly drawn),IC50,[5],1350 nM
same,inhibition,HEK293T,52%
same,IC50,[10],1350 nM
C[C@H]1O[C@@](O)(O[C@H]2CC[C@@]3(C)[C@@H](CC[C@]4(C)[C@@H]3C=CC3=C5CC(C)(C)CC[C@]5(CO)[C@H](O)C[C@]34C)[C@]2(C)CO)[C@H](O)[C@@H](O[C@@H]2O[C@H](CO)[C@@H](O)[C@H](O)[C@H]2O)[C@H]1O,IC50,Human coronavirus 229E,1700 nM
same,selectivity ratio,[11],222
CC1(C)CC[C@]2(C(=O)N[C@@H]3O[C@H](CO)[C@@H](O)[C@H](O)[C@@H]3O)CC[C@]3(C)C(=CC[C@@H]4[C@@]5(C)CC[C@H](O)C(C)(C)[C@@H]5CC[C@]43C)[C@@H]2C1,inhibition,HEK293T,-5%
CC(C)C[C@H](NC(=O)CCCCCCCNC(=O)[C@]12CC[C@@H](C(C)C)[C@@H]1[C@H]1CC[C@@H]3[C@@]4(C)CC[C@H](O)C(C)(C)[C@@H]4CC[C@@]3(C)[C@]1(C)CC2)[C@H](O)CC(=O)O,EC50,[3],330 nM
CC1(C)CC[C@]2(C(=O)O)CC[C@]3(C)C(=CC[C@@H]4[C@@]5(C)CCC(=O)C(C)(C)[C@@H]5CC[C@]43C)[C@@H]2C1,inhibition,HEK293T,25%
CC(C)C1=C2[C@H]3CC[C@@H]4[C@@]5(C)CC[C@H](OC(=O)CC(C)(C)C(=O)O)C(C)(C)[C@@H]5CC[C@@]4(C)[C@]3(C)CC[C@@]2([C@@H](O)CN(CCN(C)C)Cc2ccc(Cl)cc2)CC1=O [GSK2838232],IC50,[12],0.81 nM
same,IC50,[13],0.71 nM
CC(=O)OC[C@H]1O[C@@H](NC(=O)[C@]23CCC(C)(C)C[C@H]2C2=CC[C@@H]4[C@@]5(C)CCC(=O)C(C)(C)[C@@H]5CC[C@@]4(C)[C@]2(C)CC3)[C@H](OC(C)=O)[C@@H](OC(C)=O)[C@H]1OC(C)=O,IC50,[5],467 nM
same,inhibition,HEK293T,93%
same,IC50,[10],467 nM

# Reference: ChEMBL document CHEMBL4706626, “Triterpenoid-Mediated Inhibition of Virus-Host Interaction: Is Now the Time for Discovering Viral Entry/Release Inhibitors from Nature?” (J Med Chem, 2020)
